{"source": "patent US4910225A", "about": "“Locally administrable therapeutic composition for inflammatory disease” (Senju Pharmaceutical Co., Ltd., priority 1988, dated 1990)", "key": {"[1]": {"tested_on": "experimental ophthalmitis induced by bovine serum albumin in white rabbits (ophthalmitis II)", "test": "Anti-inflammatory effect in ophthalmitis II (intravenous bovine serum albumin relapse), gross severity scores", "type": "in vivo", "conditions": "for Anterior chamber opacity score (Internal Segment) / Balbar conjunctival injection score (External Segment) / Corneal opacity score (External Segment) / Discharge score (External Segment) / External + Internal Grand Total Score / External Segment Total Score / Internal Segment Total Score / Iridic injection score (Internal Segment) / Morphological change of iris score (Internal Segment) / Palpebral conjunctival edema score (External Segment) / Palpebral conjunctival injection score (External Segment): ophthalmitis II, 3, 6, 12 and 24 hours after intravenous BSA, mean ± SE", "procedure": "(§1) Seventeen male white rabbits weighing about 2 kg were used. They were fed with 80 g of Labo RG-RO (Nippon Agricultural Co., Ltd.) daily and had free access to tap water.\n(§2) After 28 days when ophthalmitis I had nearly recovered, 2.5% BSA solution was administered in a dose of 25 mg/ml/kg into the auricular vein to cause ophthalmitis (ophthalmitis II). The severity of ophthalmitis was rated according to the rating scale^(1) of Yamauchi et al., based on the Draize method in which an increased weight given to the internal segment of the eye. Observation was made with a frequency of once in one or two days during the peak period of inflammation and once in three or four days before and after the peak period for ophthalmitis I and 3, 6, 12 and 24 hours after intravenous injection of BSA for ophthalmitis II.\n^(1) Hideyasu Yamauchi, Makoto Ingu, Tadashi Iso and Kozo Uda: Anti-inflammatory effect of fluorometholone ophthalmic solution in experimental uveitis in rabbits, Folia Ophthalmologica Japonica, 24: 969-79 (1973).\n(§3) Gross observation was made on the day after injection of BSA into the vitreous body and with the animals arranged in the decreasing order of severity of ocular inflammation, grouping was carried out in such a manner that the intensity distribution would be uniform over the groups. Thus, a physiological saline group of 7 animals, a 0.1% Compound [I] instillation group of 4 animals and a 0.5% Compound [I] instillation group of 5 animals were provided. After this grouping procedure, the test drugs and saline were respectively instilled into both eyes of the rabbits, 50 μl per dose, 4 times a day. For induction of ophthalmitis II, each drug was instilled into both eyes, 50 μl per dose, immediately after injection of BSA into the auricular vein and at 1-hour intervals thereafter, for a total of 14 times."}, "[2]": {"tested_on": "experimental ophthalmitis induced by bovine serum albumin in white rabbits (ophthalmitis II)", "test": "Ophthalmitis II: protein, white blood cell count and prostaglandins in anterior chamber aqueous humor", "type": "in vivo", "conditions": "for Prostaglandin in anterior chamber aqueous humor: less than the assay limit; for White Blood Cell count in anterior chamber aqueous humor: mean ± SE", "procedure": "as §1, §2, §3"}, "[3]": {"tested_on": "atropine-resistant miosis", "test": "Atropine-resistant miosis after paracentesis", "type": "in vivo, albino rabbits", "conditions": "for Miosis: 10 min after paracentesis", "procedure": "The solutions of the following formulas were used.\nTotally 28 male albino rabbits (4 rabbits×7 groups) with a body weight of about 2 kg werr used. They had been confirmed, before the experiment, to have mydriatic response to 1% atropine for at least 4 hours.\n50 μl each of 1% atropine solution was instilled into both eyes of the animals one hour before the 1st paracenthesis, in which approx. 0.2 ml/eye of aqueous humor (primary aqueous humor) was collected. Topical application of 50 μl each of the test drug solutions was conducted 30 min before the paracenthesis. Pupil diameter of each eye was measured with a slide caliper immediately before and 10 min after the paracenthesis. The 2nd paracenthesis was conducted 90 min after the 1st one, in which approx. 0.2 ml/eye of aqueous humor (secondary aqueous humor) was collected."}, "[4]": {"test": "Stability with polyvinyl pyrrolidone and sodium sulfite (Experimental Example 6)", "type": "physicochemical", "conditions": "solution in which polyvinyl pyrrolidone and sodium sulfite coexist"}, "[5]": {"test": "pH and osmolarity of ophthalmic solutions", "type": "physicochemical"}}}
{"smiles": "Nc1c(CC(=O)[O-])cccc1C(=O)c1ccc(Br)cc1.O.[Na+]", "note": "[Compound [I], Sodium 3-(4-bromobenzoyl)-2-aminophenylacetate monohydrate]", "values": [{"measurement": "Palpebral conjunctival edema, degree of inhibition relative to physiological saline group", "setting": "[1]; 0.1%, ophthalmitis II", "value": 45.0, "unit": "%"}, {"measurement": "Palpebral conjunctival injection, degree of inhibition relative to physiological saline group", "setting": "[1]; 0.1%, ophthalmitis II", "value": 29.8, "unit": "%"}, {"measurement": "Anterior chamber opacity score (Internal Segment)", "setting": "[1]; 0.1%", "value": "2.8 ± 0.8"}, {"measurement": "Balbar conjunctival injection score (External Segment)", "setting": "[1]; 0.1%", "value": "8.1 ± 0.4"}, {"measurement": "Corneal opacity score (External Segment)", "setting": "[1]; 0.1%", "value": "0.6 ± 0.2"}, {"measurement": "Discharge score (External Segment)", "setting": "[1]; 0.1%", "value": 0}, {"measurement": "External + Internal Grand Total Score", "setting": "[1]; 0.1%", "value": "21.8 ± 2.1"}, {"measurement": "External Segment Total Score", "setting": "[1]; 0.1%", "value": "13.1 ± 1.1"}, {"measurement": "Internal Segment Total Score", "setting": "[1]; 0.1%", "value": "8.0 ± 1.2"}, {"measurement": "Iridic injection score (Internal Segment)", "setting": "[1]; 0.1%", "value": "2.8 ± 0.1"}, {"measurement": "Morphological change of iris score (Internal Segment)", "setting": "[1]; 0.1%", "value": "2.4 ± 0.4"}, {"measurement": "Palpebral conjunctival edema score (External Segment)", "setting": "[1]; 0.1%", "value": "1.1 ± 0.4"}, {"measurement": "Palpebral conjunctival injection score (External Segment)", "setting": "[1]; 0.1%", "value": "4.0 ± 0.3"}, {"measurement": "Anterior chamber opacity, degree of inhibition relative to physiological saline group", "setting": "[1]; 0.5%, ophthalmitis II", "value": -47.4, "unit": "%"}, {"measurement": "Balbar conjunctival injection, degree of inhibition relative to physiological saline group", "setting": "[1]; 0.5%, ophthalmitis II", "value": 27.0, "unit": "%"}, {"measurement": "Corneal opacity, degree of inhibition relative to physiological saline group", "setting": "[1]; 0.5%, ophthalmitis II", "value": 57.1, "unit": "%"}, {"measurement": "Discharge, degree of inhibition relative to physiological saline group", "setting": "[1]; 0.5%, ophthalmitis II", "value": 100, "unit": "%"}, {"measurement": "External + Internal Grand Total Score, degree of inhibition relative to physiological saline group", "setting": "[1]; 0.5%, ophthalmitis II", "value": 34.2, "unit": "%"}, {"measurement": "External Segment Total Score, degree of inhibition relative to physiological saline group", "setting": "[1]; 0.5%, ophthalmitis II", "value": 31.4, "unit": "%"}, {"measurement": "Internal Segment Total Score, degree of inhibition relative to physiological saline group", "setting": "[1]; 0.5%, ophthalmitis II", "value": 33.3, "unit": "%"}, {"measurement": "Iridic injection, degree of inhibition relative to physiological saline group", "setting": "[1]; 0.5%, ophthalmitis II", "value": 54.8, "unit": "%"}, {"measurement": "Morphological change of iris, degree of inhibition relative to physiological saline group", "setting": "[1]; 0.5%, ophthalmitis II", "value": 32.6, "unit": "%"}, {"measurement": "Palpebral conjunctival edema, degree of inhibition relative to physiological saline group", "setting": "[1]; 0.5%, ophthalmitis II", "value": 55.0, "unit": "%"}, {"measurement": "Palpebral conjunctival injection, degree of inhibition relative to physiological saline group", "setting": "[1]; 0.5%, ophthalmitis II", "value": 60.5, "unit": "%"}, {"measurement": "Anterior chamber opacity score (Internal Segment)", "setting": "[1]; 0.5%", "value": "2.8 ± 0.5"}, {"measurement": "Balbar conjunctival injection score (External Segment)", "setting": "[1]; 0.5%", "value": "8.1 ± 0.3"}, {"measurement": "Corneal opacity score (External Segment)", "setting": "[1]; 0.5%", "value": "0.6 ± 0.2"}, {"measurement": "Discharge score (External Segment)", "setting": "[1]; 0.5%", "value": 0}, {"measurement": "External + Internal Grand Total Score", "setting": "[1]; 0.5%", "value": "22.3 ± 1.1"}, {"measurement": "External Segment Total Score", "setting": "[1]; 0.5%", "value": "13.3 ± 0.6"}, {"measurement": "Internal Segment Total Score", "setting": "[1]; 0.5%", "value": "9.0 ± 0.7"}, {"measurement": "Iridic injection score (Internal Segment)", "setting": "[1]; 0.5%", "value": "3.3 ± 0.3"}, {"measurement": "Morphological change of iris score (Internal Segment)", "setting": "[1]; 0.5%", "value": "2.9 ± 0.3"}, {"measurement": "Palpebral conjunctival edema score (External Segment)", "setting": "[1]; 0.5%", "value": "0.9 ± 0.2"}, {"measurement": "Palpebral conjunctival injection score (External Segment)", "setting": "[1]; 0.5%", "value": "3.7 ± 0.1"}, {"measurement": "Inhibitory effect on inflammatory symptoms induced by intravenous antigen", "setting": "[1]; both concentrations (0.1% and 0.5%), gross observation", "value": "substantially complete inhibition at both concentrations"}, {"measurement": "Prostaglandin in anterior chamber aqueous humor", "setting": "[2]; 0.1%", "value": "< 0.4", "unit": "ng/mL"}, {"measurement": "White Blood Cell count in anterior chamber aqueous humor", "setting": "[2]; 0.1%", "value": "1489 ± 499", "unit": "Cells/mm^3"}, {"measurement": "Prostaglandin in anterior chamber aqueous humor", "setting": "[2]; 0.5%", "value": "< 0.4", "unit": "ng/mL"}, {"measurement": "White Blood Cell count in anterior chamber aqueous humor", "setting": "[2]; 0.5%", "value": "1673 ± 277", "unit": "Cells/mm^3"}, {"measurement": "Inhibitory activity on miosis after paracentesis", "setting": "[3]; Compound [I] 0.0001-0.1%, indomethacin as high as 0.5%", "value": "dose-related inhibitory activity on miosis after paracentesis"}, {"measurement": "Inhibition (miosis)", "setting": "[3]; content 0.0001%", "value": "9.2 ± 8.33", "unit": "%"}, {"measurement": "Miosis", "setting": "[3]; content 0.0001%", "value": "21.5 ± 1.97", "unit": "%"}, {"measurement": "Inhibition (miosis)", "setting": "[3]; content 0.001%", "value": "19.7 ± 6.08", "unit": "%"}, {"measurement": "Miosis", "setting": "[3]; content 0.001%", "value": "19.0 ± 1.44", "unit": "%"}, {"measurement": "Inhibition (miosis)", "setting": "[3]; content 0.01%", "value": "35.2 ± 6.75", "unit": "%"}, {"measurement": "Miosis", "setting": "[3]; content 0.01%", "value": "15.4 ± 1.60", "unit": "%"}, {"measurement": "Inhibition (miosis)", "setting": "[3]; content 0.1%", "value": "24.9 ± 16.4", "unit": "%"}, {"measurement": "Miosis", "setting": "[3]; content 0.1%", "value": "17.4 ± 3.80", "unit": "%"}, {"measurement": "Decomposition of Compound [I]", "setting": "[4]", "value": "the decomposition of Compound [I] was not observed either"}, {"measurement": "Osmolarity of ophthalmic solution", "setting": "[5]; 0.1% ophthalmic solution", "value": 325, "unit": "mOsm/kg·H2 O"}, {"measurement": "pH value of ophthalmic solutions", "setting": "[5]; 0.5% and 0.1% ophthalmic solutions", "value": 8.11}, {"measurement": "Osmolarity of ophthalmic solution", "setting": "[5]; 0.5% ophthalmic solution", "value": 310, "unit": "mOsm/kg·H2 O"}, {"measurement": "Osmotic pressure", "setting": "[5]; Experimental Example 3 solutions 0.1-0.0001%, pH 8.0", "value": 310, "unit": "mOsm/Kg.H2 O"}]}
